Where two headings read alike, the source gives them in different places.
Assays:
[1] = molecular target: cIAP1-BIR3 (Homo sapiens (Human), UniProt Q13490); assay: BIR binding assay (FRET competition), cIAP1 BIR3; conditions: for cIAP1 BIR3 vs BIR2 separation window: fold separation (FS) for cIAP1
Outline: (§1)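 Each domain is run separately at its own level: 50 nM cIAP1-BIR3, 100 nM XIAP-BIR3, 325 nM for cIAP1-BIR2 or cIAP2-BIR2. Probe is a 200 nM fluorescent SMAC peptide, and the value is IC50 from FRET competition.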

[2] = molecular target: XIAP-BIR2 (Homo sapiens (Human), UniProt P98170); assay: BIR binding assay (FRET competition), XIAP BIR2; conditions: read-out: XIAP BIR2 (pIC50) (converted)
Outline: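 Compounds in a 15-point, 3-fold series competed with an AlexaFluor647 SMAC peptide (AVPIAQKSE, 200 nM) for 200 nM His-tagged XIAP-BIR2 over 60 min in pH 7.4 HEPES/CHAPS/DTT buffer. Eu-W1024 (2 nM) was then added for 30 min. IC50 and pIC50 were derived from the 615 nm/665 nm emission ratio by variable-slope fit.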

[3] = molecular target: cIAP2-BIR2 (Homo sapiens (Human), UniProt Q13489); assay: BIR binding assay (FRET competition), cIAP2 BIR2
Outline: as §1

[4] = molecular target: cIAP2-BIR3 (Homo sapiens (Human), UniProt Q13489); assay: BIR binding assay (FRET competition), cIAP2 BIR3; conditions: for cIAP2 BIR3 vs BIR2 separation window: fold separation (FS) for cIAP2
[5] = test system: Jurkat HIV-luciferase clones; assay: Jurkat latency reversal assay; assay type: cell-based; conditions: Homo sapiens, 48 h; Jurkat latency reversal assay potency; read-out: Jurkat pEC50 (converted)
Outline: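 Latency reversal was scored as provirus-driven luciferase luminescence in pooled Jurkat HIV-luc clones after 48 h compound exposure at 37° C. EC50 and maximal activation over vehicle were fitted with a four-parameter logistic model.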

[6] = molecular target: XIAP-BIR3 (Homo sapiens (Human), UniProt P98170); assay: BIR binding assay (FRET competition), XIAP BIR3; conditions: for XIAP BIR3 vs BIR2 separation window: fold separation (FS) for XIAP
Outline: as §1

[7] = molecular target: cIAP1-BIR2 (Homo sapiens (Human), UniProt Q13490); assay: BIR binding assay (FRET competition), cIAP1 BIR2
Outline: as §1

Sequence of cIAP2-BIR2 (Q13489 158-242): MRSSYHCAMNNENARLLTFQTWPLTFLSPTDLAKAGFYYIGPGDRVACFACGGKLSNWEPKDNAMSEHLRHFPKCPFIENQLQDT
Sequence of XIAP-BIR2 (P98170 124-240): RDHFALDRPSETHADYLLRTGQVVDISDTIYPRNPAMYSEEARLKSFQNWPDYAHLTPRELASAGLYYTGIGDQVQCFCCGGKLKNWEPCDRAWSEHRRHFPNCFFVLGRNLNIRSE
Sequence of cIAP1-BIR3 (Q13490 253-363): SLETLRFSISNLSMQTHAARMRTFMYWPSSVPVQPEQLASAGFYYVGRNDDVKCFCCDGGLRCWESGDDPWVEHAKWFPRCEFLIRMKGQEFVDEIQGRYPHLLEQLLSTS
Sequence of cIAP2-BIR3 (Q13489 238-349): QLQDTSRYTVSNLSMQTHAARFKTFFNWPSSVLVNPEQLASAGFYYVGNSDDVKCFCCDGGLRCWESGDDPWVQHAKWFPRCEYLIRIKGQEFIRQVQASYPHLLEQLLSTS
Sequence of XIAP-BIR3 (P98170 241-356): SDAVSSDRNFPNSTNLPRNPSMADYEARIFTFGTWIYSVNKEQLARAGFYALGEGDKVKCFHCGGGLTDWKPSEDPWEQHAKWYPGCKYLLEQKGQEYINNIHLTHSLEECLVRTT
Sequence of cIAP1-BIR2 (Q13490 173-257): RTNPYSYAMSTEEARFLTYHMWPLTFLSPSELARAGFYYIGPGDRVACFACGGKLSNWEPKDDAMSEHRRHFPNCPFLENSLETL

Structure (SMILES)	IC50 [1]	cIAP1 BIR3 vs BIR2 separation window [1]	IC50 ([2]; FRET competition)	IC50 [3]	IC50 [4]	cIAP2 BIR3 vs BIR2 separation window [4]	EC50 [5]	IC50 [6]	XIAP BIR3 vs BIR2 separation window [6]	IC50 [7]	IC50 ([2]; FRET competition binding)
C[C@@H]1CN(CC(=O)N2CC(C)(C)c3[nH]c(=O)c(Cc4ccc(F)cc4)cc32)[C@@H](CN2CCO[C@H](C(=O)NCCCCCNC(=O)[C@@H]3CN(C[C@H]4CN[C@H](C)CN4CC(=O)N4CC(C)(C)c5[nH]c(=O)c(Cc6ccc(F)cc6)cc54)CCO3)C2)CN1 [Compound 136, (2S,2′S)-N,N′-(pentane-1,5-diyl)bis(4-(((2R,5R)-1-(2-(6-(4-fluorobenzyl)-3,3-dimethyl-5-oxo-2,3,4,5-tetrahydro-1H-pyrrolo[3,2-b]pyridin-1-yl)-2-oxoethyl)-5-methylpiperazin-2-yl)methyl)morpholine-2-carboxamide)]	7.94 to 15.8 nM	+++ (10,000>FS>1,000)	10000 to 51300 nM	1000 to 3160 nM	7.94 to 15.8 nM	+++ (10,000>FS>1,000)	63.1 to 316 nM	15.8 to 31.6 nM	++++ (FS>10,000)	1000 to 3160 nM	
C[C@@H]1CN(CC(=O)N2CC(C)(C)c3[nH]c(=O)c(Cc4ccc(F)cc4)cc32)[C@@H](CN2CCO[C@H](COc3cccc(OC[C@@H]4CN(C[C@H]5CN[C@H](C)CN5CC(=O)N5CC(C)(C)c6[nH]c(=O)c(Cc7ccc(F)cc7)cc65)CCO4)c3Cl)C2)CN1 [Example 88, 1,1′-(2,2′-((3R,3′R,6R,6′R)-(((2S,2'S)-(((2-chloro-1,3-phenylene)bis(oxy))bis(methylene))bis(morpholine-2,4-diyl))bis(methylene))bis(3-methylpiperazine-6,1-diyl))bis(acetyl))bis(6-(4-fluorobenzyl)-3,3-dimethyl-1,2,3,4-tetrahydro-5H-pyrrolo[3,2-b]pyridin-5-one)]	7.94 to 15.8 nM	+++ (10,000>FS>1,000)		1000 to 3160 nM	7.94 to 15.8 nM	+++ (10,000>FS>1,000)	0.49 to 12.6 nM	7.94 to 15.8 nM	++++ (FS>10,000)	1000 to 3160 nM	10000 to 51300 nM
C[C@@H]1CN(CC(=O)N2CC(C)(C)c3[nH]c(=O)c(Cc4ccc(F)cc4)cc32)[C@@H](CN2CCO[C@H](C(=O)N(C)CCCN(C)C(=O)[C@@H]3CN(C[C@H]4CN[C@H](C)CN4CC(=O)N4CC(C)(C)c5[nH]c(=O)c(Cc6ccc(F)cc6)cc54)CCO3)C2)CN1 [Example 130, (2S,2'S)-N,N′-(Propane-1,3-diyl)bis(4-(((2R,5R)-1-(2-(6-(4-fluorobenzyl)-3,3-dimethyl-5-oxo-2,3,4,5-tetrahydro-1H-pyrrolo[3,2-b]pyridin-1-yl)-2-oxoethyl)-5-methylpiperazin-2-yl)methyl)-N-methylmorpholine-2-carboxamide)]	1.38 to 7.94 nM	+++ (10,000>FS>1,000)		1000 to 3160 nM	1.38 to 7.94 nM	+++ (10,000>FS>1,000)	12.6 to 63.1 nM	7.94 to 15.8 nM	++++ (FS>10,000)	1000 to 3160 nM	10000 to 51300 nM
C[C@@H]1CN(CC(=O)N2CC(C)(C)c3[nH]c(=O)c(Cc4ccc(F)cc4C#N)cc32)[C@@H](CN2CCO[C@H](C(=O)NCc3ccc(CNC(=O)[C@@H]4CN(C[C@H]5CN[C@H](C)CN5CC(=O)N5CC(C)(C)c6[nH]c(=O)c(Cc7ccc(F)cc7C#N)cc65)CCO4)cc3)C2)CN1 [Compound 179, (2S,2′S)-N,N′-(1,4-phenylenebis(methylene)) bis(4-(((2R,5R)-1-(2-(6-(2-cyano-4-fluorobenzyl)-3,3-dimethyl-5-oxo-2,3,4,5-tetrahydro-1H-pyrrolo[3,2-b]pyridin-1-yl)-2-oxoethyl)-5-methylpiperazin-2-yl)methyl)morpholine-2-carboxamide)]	15.8 to 31.6 nM	++ (1,000>FS>100)	10000 to 51300 nM	1000 to 3160 nM	15.8 to 31.6 nM	+++ (10,000>FS>1,000)	12.6 to 63.1 nM	31.6 to 501 nM	+++ (10,000>FS>1,000)	1000 to 3160 nM	
C[C@@H]1CN(CC(=O)N2CC(C)(C)c3[nH]c(=O)c(Cc4ccc(F)cc4)cc32)[C@@H](CN2CCC(CNC(=O)c3ccc(C(=O)NCC4CCN(C[C@H]5CN[C@H](C)CN5CC(=O)N5CC(C)(C)c6[nH]c(=O)c(Cc7ccc(F)cc7)cc65)CC4)cc3)CC2)CN1 [Example 101, N^1,N^4-bis((1-(((2R,5R)-1-(2-(6-(4-fluorobenzyl)-3,3-dimethyl-5-oxo-2,3,4,5-tetrahydro-1H-pyrrolo[3,2-b]pyridin-1-yl)-2-oxoethyl)-5-methylpiperazin-2-yl)methyl)piperidin-4-yl)methyl)terephthalamide]	1.38 to 7.94 nM	+++ (10,000>FS>1,000)		3160 to 10000 nM	1.38 to 7.94 nM	++++ (FS>10,000)	63.1 to 316 nM	7.94 to 15.8 nM	++++ (FS>10,000)	3160 to 10000 nM	10000 to 51300 nM
C[C@@H]1CN(CC(=O)N2CC(C)(C)c3[nH]c(=O)c(Cc4ccc(F)cc4)cc32)[C@@H](CN2CCO[C@H](C(=O)NCCN3CCN(C(=O)[C@@H]4CN(C[C@H]5CN[C@H](C)CN5CC(=O)N5CC(C)(C)c6[nH]c(=O)c(Cc7ccc(F)cc7)cc65)CCO4)CC3)C2)CN1 [Compound 134, (S)-4-(((2R,5R)-1-(2-(6-(4-fluorobenzyl)-3,3-dimethyl-5-oxo-2,3,4,5-tetrahydro-1H-pyrrolo[3,2-b]pyridin-1-yl)-2-oxoethyl)-5-methylpiperazin-2-yl)methyl)-N-(2-(4-((S)-4-(((2R,5R)-1-(2-(6-(4-fluorobenzyl)-3,3-dimethyl-5-oxo-2,3,4,5-tetrahydro-1H-pyrrolo[3,2-b]pyridin-1-yl)-2-oxoethyl)-5-methylpiperazin-2-yl)methyl)morpholine-2-carbonyl)piperazin-1-yl)ethyl)morpholine-2-carboxamide]	15.8 to 31.6 nM	++ (1,000>FS>100)	10000 to 51300 nM	1000 to 3160 nM	7.94 to 15.8 nM	+++ (10,000>FS>1,000)	12.6 to 63.1 nM	31.6 to 501 nM	+++ (10,000>FS>1,000)	1000 to 3160 nM	
C[C@@H]1CN(CC(=O)N2CC(C)(C)c3[nH]c(=O)c(Cc4ccc(F)cc4)cc32)[C@@H](CN2CCO[C@H](C(=O)N[C@H]3CC[C@H](NC(=O)[C@@H]4CN(C[C@H]5CN[C@H](C)CN5CC(=O)N5CC(C)(C)c6[nH]c(=O)c(Cc7ccc(F)cc7)cc65)CCO4)CC3)C2)CN1 [Example 92, (2S,2'S)-N,N′-((1S,4S)-cyclohexane-1,4-diyl)bis(4-(((2R,5R)-1-(2-(6-(4-fluorobenzyl)-3,3-dimethyl-5-oxo-2,3,4,5-tetrahydro-1H-pyrrolo[3,2-b]pyridin-1-yl)-2-oxoethyl)-5-methylpiperazin-2-yl)methyl)morpholine-2-carboxamide)]	1.38 to 7.94 nM	+++ (10,000>FS>1,000)		1000 to 3160 nM	7.94 to 15.8 nM	+++ (10,000>FS>1,000)	12.6 to 63.1 nM	7.94 to 15.8 nM	++++ (FS>10,000)	1000 to 3160 nM	10000 to 51300 nM
